Like-named read-outs stand apart in the source and are kept apart here.

The conditions of series [1]: Britton-Robinson buffer, FIG. 1.
For series [2] the following is noted: imiquimod; cited from earlier work.
Series [3] deals with T effector memory cells. As to conditions: Fiorenza et al, 2012; cited from earlier work.
The conditions of series [4]: rats, single subcutaneous dose; cited from earlier work.
The conditions of series [5]: pregnant female rabbits, intravenous, gestational Days 6-18; cited from earlier work.
The conditions of series [6]: EMA toxicology review of Aldara; cited from earlier work.
The conditions of series [7]: mice, dermal exposure; cited from earlier work.
For series [8] the following is noted: mice, rats, and monkeys; adverse effects limited to the central nervous system; cited from earlier work.
For series [9] the following is noted: rabbits, doses of 2000 and 5000 mg/kg under occlusion; cited from earlier work.
The conditions of series [10]: rats, oral, repeated dose up to 6 months; cited from earlier work.
For series [11] the following is noted: monkeys, oral, repeated dose up to 6 months; cited from earlier work.
For series [12], the system named is mesothelioma, renal cell carcinoma and 4T1 breast cancer. As to conditions: mouse models, cited from earlier work.
The conditions of series [13]: injected subcutaneously into patients; cited from earlier work.
The conditions of series [14]: 30 mg subcutaneous dose, healthy human volunteers; cited from earlier work.
The test system of series [15] is IL-2 stimulated B cells. To be noted: Glaum et al, 2009; cited from earlier work.
On the set-up of series [16]: species or system human. An excerpt: The efficacy of the presently disclosed compositions and nanoparticles allows for the administration of relatively low doses.

Consider `CC(C)Cn1cnc2c(N)nc3ccccc3c21` [imiquimod, 1-(2-methylpropyl)imidazo[4,5-c]quinolin-4-amine], for which the “pH of maximum solubility in aqueous solution” value in [1] is listed as no more than 2. In series [1] (above pH 6), the “aqueous solubility above pH 6” value is “sparingly soluble”. In addition, the in vivo half-life result in series [2] was “approximately 3 hours”. The “cytotoxic activity of T effector memory cells” value in [3] is “enhances the cytotoxic activity”. Also, the subcutaneous lethal dose in series [4] is recorded as 20 mg/kg. The “dose with no treatment related effects on embryofetal toxicity or teratogenicity” value in [5] is 2 mg/kg/day. Further, in series [6], the effect on fertility result is given as “did not affect fertility”; the teratogenicity and genotoxicity entry was “neither teratogenic nor genotoxic”. For the same molecule, in [7], the “carcinogenicity: incidence of tumors or non-neoplastic lesions” value is given as “no increase in the incidence of tumors or non-neoplastic lesions”. In series [8], the single dose toxicity result was “high degree of safety”. The dermal toxicity entry in [9] is “no deaths and no signs of toxicity other than mild transient erythema at the application site”. Further, in series [10], the “no observed adverse effect level (NOAEL)” value was 3 mg/kg. Moreover, the “no observed adverse effect level (NOAEL)” value in series [11] is recorded as 3 mg/kg. Further, in [12] (50 μL injections of 50 μg/mL imiquimod), the “overt signs of toxicity (such as weight loss and ruffled fur)” value is given as “not associated with overt signs of toxicity”. Also, in [12] (intratumoral, 50 μL injections of 50 μg/mL imiquimod (p<0.05)), the “increase in survival time at maximum inhibition of tumor growth” value is reported as greater than 50%. Moreover, the growth of tumor result in series [12] (only locally (intratumoral) delivered) was “consistently and significantly retarded the growth of tumor”. The systemic exposure result in [13] is given as “minimal systemic exposure”. Also, the “tolerability of subcutaneous dose” value in series [14] is listed as “well tolerated”.
As to `CCOCc1nc2c(N)nc3ccccc3c2n1CC(C)(C)O` [resiquimod], in series [15], the “IgM and IgG production by IL-2 stimulated B cells” value was “synergistically enhance IgM and IgG production”.
With “2-hydroxypropyl-β-cyclodextrin [HP-β-CD]”, the “Safety Factor (excipient dose from approved drug vs excipient dose from NP)” value in series [16] is reported as 11-fold.
On to polyethylene glycol 4000 [PEG 4000], for which, in series [16], the “Safety Factor (excipient dose from approved drug vs excipient dose from NP)” value is recorded as 2-fold.

The values are drawn from US20240335383A1, “NANOPARTICULATE FORMULATION” (NewImmune II, LLC, priority 2021, published 2024).
